Where two headings read alike, the source gives them in different places. Values belong to the compound of their own block, whether it stands above or below them.
Legend:
[1] = system: experimental nephrotoxic nephritis; design: method as in PMID 19959716; details: rats; cited from earlier work
[2] = system: collagen-induced arthritis; design: method as in PMID 17537677; details: rodents; cited from earlier work
[3] = type: in vitro ADME; details: rat
Protocol: Short-term stability was evaluated at 22–25 °C for 6 h, which represented the processing time. Autosampler stability at ambient temperature for 24 h, long-term stability (−80 °C for 6 weeks), and three cycles of thaw and freeze (−80 and 25 °C) were evaluated. The actual concentrations of QCs samples (LQC, MQC, and HQC) under the stability test condition were compared against freshly prepared samples. Moreover, stock solution and working solution stability was evaluated at refrigerator temperature (4 °C) for 2 weeks.

[4] = Pharmacokinetic study of tamatinib in rats after oral fostamatinib (UPLC-MS/MS of plasma); type: in vivo, Wistar male rats
Protocol: The analysis was performed on Waters® Acquity H-Class UPLC® tandem triple quadrupole mass spectrometer (TQD) (Waters, Milford, USA). The H-Class UPLC® system contained Acquity sample manager and Acquity quaternary solvent manager. TQD was equipped with electrospray ionization (ESI) probe. Samples were detected and quantified in multiple reaction monitoring (MRM) mode. […] Mobile phase composition was 10 mM ammonium acetate and acetonitrile (10:90). The mobile phase was adjusted at 0.25 mL/min. […] Samples were vortex-mixed for 30 s, and 1 mL of MTBE was added. All samples were vortex-mixed for 1 min, then centrifuged at 8 °C for 10 min at 4500 g. After centrifugation, the upper layer was transferred to 2 mL tubes and dried using a vacuum concentrator at 40 °C. The residue was reconstituted with 100 µL of the mobile phase and a volume of 5 µL was injected into the UPLC–MS/MS. Eight Wistar male rats weighing 210 ± 20 g (aged about 2 months) were provided by National Organization for Drug Control and Research, Cairo, Egypt. Rats were placed in cages in optimum conditions of humidity (40–60%) and temperature (22–26 °C) with regular 12 h day-night cycle. No diet was available for animals for 10 h prior and 1 h post drug administration. Water was available ad libitum. Rats were administered orally (using the gavage technique) 12.5 mg/kg (the middle dose used in the work of Clemens et al.) fostamatinib as a suspension in 1% sodium carboxymethylcellulose. Under light anesthesia, blood samples (0.3 mL) were collected from orbital sinus, in heparinized tube, at different time points; 0, 0.5, 1.0, 2.0, 3.0, 4.0, 6.0, 8.0, 12.0, 24.0, and 48.0 h after drug administration. Plasma samples were obtained by centrifugation at 3000 g for 3 min and kept frozen at −80 °C until analysis. Non-compartmental analysis with the trapezoidal rule was used for estimation of pharmacokinetic parameters. These parameters were calculated using WinNonlin software (Pharsight Co., Mountain View, CA, USA).

lung tissue = system: lung tissue; design: method as in PMID 26148346; details: treated mice; cited from earlier work
[5] = design: method as in PMID 23190017, PMID 20371637; details: human intestinal microsomes; in vitro and in humans; cited from earlier work
[6] = design: method as in PMID 19107952; details: administration during pregnancy; cited from earlier work
[7] = male, Wistar, rat, plasma, po, 12.5 mg/kg

Accuracy ([3]; 0.3 ng/mL): 90.0% | Measured Concentration ([3]; 0.3 ng/mL): 0.27 ± 0.01 ng/mL | Accuracy ([3]; 75 ng/mL): 89.9% | Measured Concentration ([3]; 75 ng/mL): 67.40 ± 2.79 ng/mL | Accuracy ([3]; 750 ng/mL): 86.6% | Measured Concentration ([3]; 750 ng/mL): 649.20 ± 69.95 ng/mL | Accuracy ([3]; 6 weeks, 0.3 ng/mL): 86.7% | Measured Concentration ([3]; 6 weeks, 0.3 ng/mL): 0.26 ± 0.02 ng/mL | Accuracy ([3]; 6 weeks, 75 ng/mL): 88.1% | Measured Concentration ([3]; 6 weeks, 75 ng/mL): 66.10 ± 7.77 ng/mL | Accuracy ([3]; 6 weeks, 750 ng/mL): 85.4% | Measured Concentration ([3]; 6 weeks, 750 ng/mL): 640.60 ± 73.94 ng/mL | Accuracy ([3]; 6 h, 0.3 ng/mL): 86.7% | Measured Concentration ([3]; 6 h, 0.3 ng/mL): 0.26 ± 0.03 ng/mL | Accuracy ([3]; 6 h, 75 ng/mL): 86.2% | Measured Concentration ([3]; 6 h, 75 ng/mL): 64.65 ± 3.47 ng/mL | Accuracy ([3]; 6 h, 750 ng/mL): 85.3% | Measured Concentration ([3]; 6 h, 750 ng/mL): 640.10 ± 43.19 ng/mL | Accuracy ([3]; 24 h, 0.3 ng/mL): 86.7% | Measured Concentration ([3]; 24 h, 0.3 ng/mL): 0.26 ± 0.02 ng/mL | Accuracy ([3]; 24 h, 75 ng/mL): 85.3% | Measured Concentration ([3]; 24 h, 75 ng/mL): 64.00 ± 5.11 ng/mL | Accuracy ([3]; 24 h, 750 ng/mL): 87.2% | Measured Concentration ([3]; 24 h, 750 ng/mL): 654.34 ± 97.10 ng/mL | AUC(0-inf) [4, 7]: 6420 ± 1500 ng·h/mL | Cmax [4, 7]: 653 ± 70.4 ng/mL | MRT [4, 7]: 19.8 ± 2.9 h | Tmax [4, 7]: 3 h | half-life [4, 7]: 18.3 ± 0.9 h | AUC(0-t) ([4]; male, Wistar, rat, plasma, po, 12.5 mg/kg, read-out: AUC0–48): 5640 ± 1210 ng·h/mL | Clearance ([4]; tamatinib in plasma, oral fostamatinib 12.5 mg/kg, rats, mean ± SD): 0.030 ± 0.001 L/h
SMILES: COc1cc(Nc2ncc(F)c(Nc3ccc4c(n3)NC(=O)C(C)(C)O4)n2)cc(OC)c1OC [Tamatinib, tamatinib]
effect in experimental nephrotoxic nephritis [1]: reduced glomerular macrophage infiltration, tissue injury, and proteinuria | effect in collagen-induced arthritis [2]: progressive improvement in histopathology, clinical scores, and joint radiography

SMILES: COc1cc(Nc2ncc(F)c(Nc3ccc4c(n3)N(COP(=O)(O)O)C(=O)C(C)(C)O4)n2)cc(OC)c1OC [fostamatinib, Fostamatinib sodium]
fibrosis and inflammation in lung tissue (lung tissue): less fibrosis and inflammation in lung tissue | transformation to tamatinib [5]: rapidly transformed to tamatinib | developmental toxicity [6]: caused urogenital and cardiovascular abnormalities

Reference: publication PMC8348403 (Molecules, 2021)
